Source: PMC7305224, “Mutually stabilizing interactions between proto-peptides and RNA” (Nature Communications, 2020)
Non-standard residues stand in square brackets, D forms with d. Residues, ends and D or L forms follow the SMILES beside them. *: point of attachment. 5FAM = O=C1OC2(c3ccc(O)cc3Oc3cc(O)ccc32)c2ccc(C(=O)*)cc21; Dab = NCC[C@H](N)C(=O)O; Lac = C[C@H](O)C(=O)O

Key:
5′-Cy5-U20 RNA = test: Gel mobility (band) shift assay; assay type: binding; conditions: 66.6–530 µM FAM-labeled sequence, 5′-Cy5-U20 RNA 26.6 µM, MES-TEA buffer pH 6, 12% native polyacrylamide gel
Protocol: The gel was cropped at the edges for clarity. […] Spectra were recorded in 100 mM MES-TEA buffer (pH 6). d Plot of the change in CD signal at 266 nm as a function of increasing concentrations of depsipeptide 14. Red and blue colors of the filled circles correspond to curves of the same color in panel (c). […] […] An addition of 1.25 µL of glycerol brought the sample volume to a total of 3.75 µL. Samples were loaded onto a 12% native polyacrylamide gel, run at 100 V for 90 min, and imaged using Azure Biosystems c430.

[1] = tested on: RNA duplex 1 (5′-rCrGrCrUrArArArUrCrG-3′ & 5′-rCrGrArUrUrUrArGrCrG-3′); test: RNA thermal denaturation (Tm) by UV hyperchromicity at 260 nm with synthetic peptides/depsipeptides, RNA duplex 1; assay type: binding; conditions: for RNA duplex 1 Tm: observed Tm, peptide/depsipeptide 80 mM (so in the source), pH 7.0, mean ± SD; for RNA duplex 1 ΔTm: peptide/depsipeptide 80 μM, pH 7.0, 10 mM phosphate, 100 mM NaCl

Structure (SMILES)	band shift of RNA in gel mobility shift assay (5′-Cy5-U20 RNA)	RNA duplex 1 Tm [1] [°C]	RNA duplex 1 ΔTm [1] [°C]
C[C@H](NC(=O)CNC(=O)c1ccc2c(c1)C(=O)OC21c2ccc(O)cc2Oc2cc(O)ccc21)C(=O)N[C@@H](CCN)C(=O)N[C@@H](CCCCN)C(=O)N[C@@H](C)C(=O)N[C@@H](CCN)C(=O)N[C@@H](CCCCN)C(=O)N[C@@H](C)C(=O)N[C@@H](CCN)C(=O)N[C@@H](CCCCN)C(=O)O[C@@H](C)C(=O)N[C@@H](CCN)C(=O)N[C@@H](CCCCN)C(=O)N[C@@H](C)C(=O)N[C@@H](CCN)C(=O)N[C@@H](CCCCN)C(N)=O [compound 13, 5-FAM-Gly-Ala-Dab-Lys-Ala-Dab-Lys-Ala-Dab-Lys-lac-Dab-Lys-Ala-Dab-Lys NH2] (5FAM-GA[Dab]KA[Dab]KA[Dab]K[Lac][Dab]KA[Dab]K-NH2)	concentration-dependent band shift	56.0 ± 0.8	12.2
C[C@H](NC(=O)CNC(=O)c1ccc2c(c1)C(=O)OC21c2ccc(O)cc2Oc2cc(O)ccc21)C(=O)N[C@@H](CCN)C(=O)N[C@@H](CCCCN)C(=O)N[C@@H](C)C(=O)N[C@@H](CCN)C(=O)N[C@@H](CCCCN)C(=O)N[C@@H](C)C(=O)N[C@@H](CCN)C(=O)N[C@@H](CCCCN)C(=O)N[C@@H](C)C(=O)N[C@@H](CCN)C(=O)N[C@@H](CCCCN)C(=O)N[C@@H](C)C(=O)N[C@@H](CCN)C(=O)N[C@@H](CCCCN)C(N)=O [compound 12, 5-FAM-Gly-Ala-Dab-Lys-Ala-Dab-Lys-Ala-Dab-Lys-Ala-Dab-Lys-Ala-Dab-Lys NH2] (5FAM-GA[Dab]KA[Dab]KA[Dab]KA[Dab]KA[Dab]K-NH2)	concentration-dependent band shift	54.4 ± 0.6	10.6
